Experiment [1] deals with Phosphatidylinositol 4,5-bisphosphate 3-kinase catalytic subunit gamma isoform (Homo sapiens) (UniProt P48736). The experiment can be described thus: Selectivity interaction (KinomeScan (DiscoverX)) EUB0000595a PIK3CG. The settings on record: at 10 µM.
The test system of experiment [2] is Leucine-rich repeat serine/threonine-protein kinase 2 (Homo sapiens), Q5S007 [G2019S]. The conditions noted are these: at 1 µM.
Experiment [3] addresses MAP kinase-interacting serine/threonine-protein kinase 1 (Homo sapiens) (UniProt Q9BUB5). The settings on record: at 10 µM.
Experiment [4] concerns the target Mitogen-activated protein kinase 6 (Homo sapiens) (UniProt Q16659). The conditions noted are these: at 10 µM.
Experiment [5] has as its target Serine/threonine-protein kinase Nek7 (Homo sapiens) (UniProt Q8TDX7). The experiment in a line: Selectivity interaction (ActivX KiNativ screen (kinase selectivity in THP-1 cell lysates)) EUB0000639a NEK7. Type of experiment: subcellular. The settings on record: lysate, at 0.01 µM.
Experiment [6] has as its target T1, Tyrosine-protein kinase receptor TYRO3 (Homo sapiens) (UniProt Q06418).
T1 sequence (whole entry): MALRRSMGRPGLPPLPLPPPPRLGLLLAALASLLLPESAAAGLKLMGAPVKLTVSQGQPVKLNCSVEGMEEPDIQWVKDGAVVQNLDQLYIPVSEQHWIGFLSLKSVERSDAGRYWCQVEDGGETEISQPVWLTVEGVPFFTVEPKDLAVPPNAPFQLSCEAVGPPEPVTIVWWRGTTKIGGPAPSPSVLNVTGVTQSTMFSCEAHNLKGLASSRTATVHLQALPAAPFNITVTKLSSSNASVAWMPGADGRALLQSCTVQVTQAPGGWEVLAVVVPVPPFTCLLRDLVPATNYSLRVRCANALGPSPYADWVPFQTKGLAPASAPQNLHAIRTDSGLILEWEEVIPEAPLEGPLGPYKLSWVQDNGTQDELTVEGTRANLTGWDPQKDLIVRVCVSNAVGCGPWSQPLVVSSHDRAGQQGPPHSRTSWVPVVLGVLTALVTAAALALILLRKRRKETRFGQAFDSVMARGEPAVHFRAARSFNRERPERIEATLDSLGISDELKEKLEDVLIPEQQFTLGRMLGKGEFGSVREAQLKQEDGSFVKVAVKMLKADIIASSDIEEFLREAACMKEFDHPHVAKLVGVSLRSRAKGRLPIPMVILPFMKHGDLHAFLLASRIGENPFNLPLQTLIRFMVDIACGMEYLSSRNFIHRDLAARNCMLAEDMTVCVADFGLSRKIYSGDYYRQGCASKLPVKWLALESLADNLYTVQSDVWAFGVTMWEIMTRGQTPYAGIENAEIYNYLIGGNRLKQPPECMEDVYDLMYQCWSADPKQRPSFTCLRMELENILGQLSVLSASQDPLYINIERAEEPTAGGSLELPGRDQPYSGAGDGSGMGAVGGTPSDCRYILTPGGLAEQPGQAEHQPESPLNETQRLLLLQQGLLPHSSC
The experiment in a line: Selectivity interaction (Ambit KINOMEscan and KiNATiv profiling in Jurkat cells) EUB0000090b TYRO3. The format is cell-based. The conditions noted are these: at 1 µM.

Experiment [7] deals with Serine/threonine-protein kinase 16 (Homo sapiens, UniProt O75716). The experiment in a line: Selectivity interaction (KinomeScan (DiscoverX)) EUB0001049a STK16. The conditions noted are these: at 1 µM.
Chain of Serine/threonine-protein kinase 16 (O75716 whole entry): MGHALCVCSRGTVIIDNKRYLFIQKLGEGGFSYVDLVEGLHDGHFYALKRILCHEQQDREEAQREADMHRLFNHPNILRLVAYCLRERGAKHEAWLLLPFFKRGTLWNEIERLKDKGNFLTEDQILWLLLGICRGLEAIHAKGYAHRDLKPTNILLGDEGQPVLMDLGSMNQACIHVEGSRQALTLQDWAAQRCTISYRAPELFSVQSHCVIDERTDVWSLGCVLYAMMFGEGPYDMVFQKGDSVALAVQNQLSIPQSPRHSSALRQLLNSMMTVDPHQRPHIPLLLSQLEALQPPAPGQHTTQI
Experiment [8] concerns the target Bromodomain-containing protein 2 (Homo sapiens) (UniProt P25440). The experiment in a line: Selectivity interaction (Human bromodomain panel (DSF assay)) EUB0000233b BRD2.
Experiment [9] has as its target T2, Serine/threonine-protein kinase Nek10 (Homo sapiens) (UniProt Q6ZWH5).
T2 sequence (whole entry): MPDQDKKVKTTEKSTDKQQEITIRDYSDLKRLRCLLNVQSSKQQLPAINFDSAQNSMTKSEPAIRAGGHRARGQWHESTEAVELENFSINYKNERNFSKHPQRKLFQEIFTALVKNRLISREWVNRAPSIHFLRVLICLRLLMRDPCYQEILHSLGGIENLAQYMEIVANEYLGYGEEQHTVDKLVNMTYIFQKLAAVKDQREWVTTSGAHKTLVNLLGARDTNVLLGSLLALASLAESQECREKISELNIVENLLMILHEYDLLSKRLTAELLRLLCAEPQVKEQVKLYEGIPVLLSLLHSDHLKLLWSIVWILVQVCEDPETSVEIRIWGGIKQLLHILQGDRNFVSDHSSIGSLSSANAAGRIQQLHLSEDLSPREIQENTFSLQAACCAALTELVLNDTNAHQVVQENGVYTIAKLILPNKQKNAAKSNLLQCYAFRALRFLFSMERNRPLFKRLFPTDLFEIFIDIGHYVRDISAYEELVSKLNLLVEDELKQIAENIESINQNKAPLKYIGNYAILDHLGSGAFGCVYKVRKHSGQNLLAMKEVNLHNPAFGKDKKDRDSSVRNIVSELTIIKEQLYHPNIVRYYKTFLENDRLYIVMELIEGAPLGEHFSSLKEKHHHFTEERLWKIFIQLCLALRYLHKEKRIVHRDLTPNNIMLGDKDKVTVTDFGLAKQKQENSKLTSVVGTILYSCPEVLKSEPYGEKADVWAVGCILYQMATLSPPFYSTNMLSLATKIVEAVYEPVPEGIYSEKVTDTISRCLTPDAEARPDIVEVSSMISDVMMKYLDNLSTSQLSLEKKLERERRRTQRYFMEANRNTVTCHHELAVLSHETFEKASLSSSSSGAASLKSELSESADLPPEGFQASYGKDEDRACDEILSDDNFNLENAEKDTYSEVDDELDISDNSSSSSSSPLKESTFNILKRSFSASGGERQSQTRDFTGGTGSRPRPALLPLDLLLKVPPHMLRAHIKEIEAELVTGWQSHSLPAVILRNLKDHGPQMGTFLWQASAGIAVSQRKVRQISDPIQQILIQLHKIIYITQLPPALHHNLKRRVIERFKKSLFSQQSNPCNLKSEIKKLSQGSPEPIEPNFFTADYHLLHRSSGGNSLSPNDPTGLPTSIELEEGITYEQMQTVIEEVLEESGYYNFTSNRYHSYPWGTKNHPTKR
The experiment can be described thus: Selectivity interaction (KinomeScan (DiscoverX)) EUB0000229b NEK10. The conditions noted are these: at 10 µM.

Chain of Mitogen-activated protein kinase 6 (Homo sapiens) (Q16659 whole entry): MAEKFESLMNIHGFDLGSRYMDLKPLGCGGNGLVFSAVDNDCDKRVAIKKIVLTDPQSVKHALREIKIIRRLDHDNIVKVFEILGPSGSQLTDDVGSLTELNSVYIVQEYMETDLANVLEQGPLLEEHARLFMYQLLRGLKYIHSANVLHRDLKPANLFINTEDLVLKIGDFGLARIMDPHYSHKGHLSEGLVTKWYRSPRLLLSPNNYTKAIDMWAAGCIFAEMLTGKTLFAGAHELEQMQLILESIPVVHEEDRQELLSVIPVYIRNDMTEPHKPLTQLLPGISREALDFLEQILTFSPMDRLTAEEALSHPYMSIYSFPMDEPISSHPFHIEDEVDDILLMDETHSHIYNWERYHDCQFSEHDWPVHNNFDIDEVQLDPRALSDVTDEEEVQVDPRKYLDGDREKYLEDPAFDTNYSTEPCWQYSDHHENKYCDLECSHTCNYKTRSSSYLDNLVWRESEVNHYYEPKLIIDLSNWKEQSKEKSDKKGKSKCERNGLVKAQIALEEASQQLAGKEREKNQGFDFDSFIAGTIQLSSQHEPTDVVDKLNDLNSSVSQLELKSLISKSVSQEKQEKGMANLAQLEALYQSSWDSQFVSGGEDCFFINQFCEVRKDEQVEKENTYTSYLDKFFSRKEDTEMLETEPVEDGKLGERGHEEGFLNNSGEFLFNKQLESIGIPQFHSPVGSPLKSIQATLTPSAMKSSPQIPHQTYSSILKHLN
Chain of Bromodomain-containing protein 2 (Homo sapiens) (P25440 whole entry, looked up): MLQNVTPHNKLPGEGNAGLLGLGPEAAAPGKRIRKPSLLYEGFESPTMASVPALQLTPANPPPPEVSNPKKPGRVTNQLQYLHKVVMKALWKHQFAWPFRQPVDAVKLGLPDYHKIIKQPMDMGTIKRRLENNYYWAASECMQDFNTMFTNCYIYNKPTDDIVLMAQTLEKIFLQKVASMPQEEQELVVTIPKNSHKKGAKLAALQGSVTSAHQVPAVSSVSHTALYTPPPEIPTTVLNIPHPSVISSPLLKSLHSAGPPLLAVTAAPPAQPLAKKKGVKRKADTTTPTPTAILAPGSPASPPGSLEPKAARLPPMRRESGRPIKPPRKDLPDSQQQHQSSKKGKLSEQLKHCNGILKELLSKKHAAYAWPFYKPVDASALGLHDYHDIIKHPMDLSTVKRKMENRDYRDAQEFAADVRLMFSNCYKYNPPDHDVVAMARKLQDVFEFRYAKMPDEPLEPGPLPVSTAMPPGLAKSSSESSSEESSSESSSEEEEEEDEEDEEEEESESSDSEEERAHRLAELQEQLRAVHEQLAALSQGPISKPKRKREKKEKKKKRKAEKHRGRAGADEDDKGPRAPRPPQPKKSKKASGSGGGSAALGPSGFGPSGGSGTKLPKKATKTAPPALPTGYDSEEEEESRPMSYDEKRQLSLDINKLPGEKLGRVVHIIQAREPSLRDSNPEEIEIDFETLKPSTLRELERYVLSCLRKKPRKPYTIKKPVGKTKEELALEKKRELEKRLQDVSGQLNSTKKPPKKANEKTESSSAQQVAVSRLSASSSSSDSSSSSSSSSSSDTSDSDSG
Chain of Leucine-rich repeat serine/threonine-protein kinase 2 (Homo sapiens), Q5S007 [G2019S] (Q5S007 whole entry G2019S): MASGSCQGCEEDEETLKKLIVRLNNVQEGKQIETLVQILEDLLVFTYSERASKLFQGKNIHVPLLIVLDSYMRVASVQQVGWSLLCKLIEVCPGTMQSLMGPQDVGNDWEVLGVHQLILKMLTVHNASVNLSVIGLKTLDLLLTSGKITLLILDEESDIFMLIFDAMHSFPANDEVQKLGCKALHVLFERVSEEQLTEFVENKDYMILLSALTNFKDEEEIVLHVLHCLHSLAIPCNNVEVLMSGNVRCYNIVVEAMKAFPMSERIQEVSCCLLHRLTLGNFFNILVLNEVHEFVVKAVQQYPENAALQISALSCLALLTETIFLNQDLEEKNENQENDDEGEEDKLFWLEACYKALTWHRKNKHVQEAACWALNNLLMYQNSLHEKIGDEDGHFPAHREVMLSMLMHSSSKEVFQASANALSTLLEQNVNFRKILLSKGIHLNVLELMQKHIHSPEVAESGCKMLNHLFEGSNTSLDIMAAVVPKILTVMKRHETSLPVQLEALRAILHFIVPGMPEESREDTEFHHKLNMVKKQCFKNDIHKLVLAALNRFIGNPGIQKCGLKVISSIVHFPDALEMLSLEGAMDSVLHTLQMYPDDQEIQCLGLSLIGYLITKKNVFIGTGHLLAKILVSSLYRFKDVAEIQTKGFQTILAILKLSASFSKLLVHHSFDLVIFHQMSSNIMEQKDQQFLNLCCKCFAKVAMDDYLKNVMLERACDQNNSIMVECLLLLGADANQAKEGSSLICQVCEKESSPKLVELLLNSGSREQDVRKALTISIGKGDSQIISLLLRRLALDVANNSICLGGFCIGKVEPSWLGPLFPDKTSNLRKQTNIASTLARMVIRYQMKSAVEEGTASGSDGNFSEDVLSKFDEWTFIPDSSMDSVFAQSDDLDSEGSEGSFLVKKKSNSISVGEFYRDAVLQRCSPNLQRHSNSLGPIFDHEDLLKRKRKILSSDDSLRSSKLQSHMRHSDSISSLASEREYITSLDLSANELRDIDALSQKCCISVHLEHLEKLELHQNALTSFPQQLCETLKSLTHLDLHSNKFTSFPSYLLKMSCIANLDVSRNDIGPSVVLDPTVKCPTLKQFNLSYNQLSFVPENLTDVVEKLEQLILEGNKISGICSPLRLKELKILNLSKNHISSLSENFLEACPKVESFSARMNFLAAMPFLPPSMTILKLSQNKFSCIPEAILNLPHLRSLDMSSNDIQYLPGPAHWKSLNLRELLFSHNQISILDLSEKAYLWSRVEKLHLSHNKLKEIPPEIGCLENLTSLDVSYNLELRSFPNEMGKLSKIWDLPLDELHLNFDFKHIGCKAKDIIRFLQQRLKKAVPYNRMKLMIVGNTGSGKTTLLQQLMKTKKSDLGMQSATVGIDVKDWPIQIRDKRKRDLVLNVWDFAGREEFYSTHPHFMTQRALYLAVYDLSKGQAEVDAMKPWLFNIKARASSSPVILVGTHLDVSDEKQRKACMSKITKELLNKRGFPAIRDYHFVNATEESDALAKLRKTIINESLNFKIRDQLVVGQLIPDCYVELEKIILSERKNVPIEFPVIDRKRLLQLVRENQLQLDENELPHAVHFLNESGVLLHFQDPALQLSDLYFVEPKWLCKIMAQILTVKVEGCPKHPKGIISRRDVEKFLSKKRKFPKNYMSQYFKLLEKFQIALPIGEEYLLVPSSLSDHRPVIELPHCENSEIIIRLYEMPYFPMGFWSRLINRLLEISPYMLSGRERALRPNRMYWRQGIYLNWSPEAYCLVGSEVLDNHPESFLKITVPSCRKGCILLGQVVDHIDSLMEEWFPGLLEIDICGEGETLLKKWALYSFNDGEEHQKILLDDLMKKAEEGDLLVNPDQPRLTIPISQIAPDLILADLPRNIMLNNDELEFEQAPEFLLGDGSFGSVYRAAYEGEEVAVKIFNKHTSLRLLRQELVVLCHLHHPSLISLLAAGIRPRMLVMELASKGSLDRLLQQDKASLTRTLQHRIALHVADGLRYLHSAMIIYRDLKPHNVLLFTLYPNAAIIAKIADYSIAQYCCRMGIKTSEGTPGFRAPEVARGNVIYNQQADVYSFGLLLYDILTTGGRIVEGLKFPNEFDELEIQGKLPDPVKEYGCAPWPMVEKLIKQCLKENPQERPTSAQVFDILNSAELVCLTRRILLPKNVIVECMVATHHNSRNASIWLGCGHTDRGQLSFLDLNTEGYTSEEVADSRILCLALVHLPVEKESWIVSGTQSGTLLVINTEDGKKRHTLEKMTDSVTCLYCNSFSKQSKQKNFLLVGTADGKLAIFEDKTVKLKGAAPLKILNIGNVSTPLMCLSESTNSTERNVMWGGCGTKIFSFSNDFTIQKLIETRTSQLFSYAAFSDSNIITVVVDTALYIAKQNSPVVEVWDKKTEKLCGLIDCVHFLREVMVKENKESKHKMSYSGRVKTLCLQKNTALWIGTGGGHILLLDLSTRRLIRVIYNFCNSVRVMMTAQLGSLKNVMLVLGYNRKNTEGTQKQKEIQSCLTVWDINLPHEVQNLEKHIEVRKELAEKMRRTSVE
Chain of Serine/threonine-protein kinase Nek7 (Homo sapiens) (Q8TDX7 whole entry, looked up): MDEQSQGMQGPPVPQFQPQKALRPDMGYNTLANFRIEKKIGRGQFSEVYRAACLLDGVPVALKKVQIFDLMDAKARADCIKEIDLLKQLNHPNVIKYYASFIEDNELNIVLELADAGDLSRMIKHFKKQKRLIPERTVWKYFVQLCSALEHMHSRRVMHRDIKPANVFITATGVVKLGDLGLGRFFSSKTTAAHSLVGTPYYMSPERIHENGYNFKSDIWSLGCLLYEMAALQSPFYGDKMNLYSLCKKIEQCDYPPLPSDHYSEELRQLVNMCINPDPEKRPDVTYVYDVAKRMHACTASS

In experiment [1], `COCC(=O)NC/C=C/c1ccc2ncnc(Nc3ccc(Oc4ccc(C)nc4)c(C)c3)c2c1` [CP-724714] gave a % of control of 100%.

Molecule `N#Cc1cccc(-c2c[nH]c3ncnc(N4CCOCC4)c23)c1` yielded a % of control in [2] of 75%.

For the molecule `Cc1cc([C@@H](C)Nc2ccccc2C(=O)O)c2nc(N3CCOCC3)cc(=O)n2c1` [AZD-6482], the values for the % of control in [3] and in [4] were 92% and 100%, respectively.

As for `CC[C@@H]1[C@H](F)C(=O)N[C@@H]1COc1nccc2cc(C(N)=O)c(OC)cc12` [ZIMLOVISERTIB], the % of inhibition in experiment [5] is -2.2%.

The molecule `CN(C)C/C=C/C(=O)Nc1ccc(C(=O)N2CCCC(Nc3ncc(Cl)c(-c4c[nH]c5ccccc45)n3)C2)cc1` (centres undefined) yielded a % of control in experiment [6] of 95%.

`COc1cc(Nc2nc(C)cc(-c3cnn4nc(OC)ccc34)n2)cc(C(F)(F)F)c1` returned a % of control in experiment [7] of 81%.

Turning to `CN(C)CCCOc1ccc(-c2cc(NCCCn3cccn3)nc(S(C)(=O)=O)n2)cc1`, in experiment [8], the dTM was under 2 K.

In [9], `COc1cc(N(C)c2ccnc3ccc(C(F)(F)F)cc23)cc(OC)c1OC` returned a % binding of 100%.

For the origin of these results see ChEMBL document CHEMBL5465560, “Selectivity Literature for EUbOPEN Chemogenomic Library” (2024).
